From patent US20060199867A1, “Ambroxol for the treatment of chronic pain” (Boehringer Ingelheim Pharma GmbH, priority 2002, published 2006)
Where a name gives a salt, the structure may show the parent alone.

Experiments:
[1] = system: formalin-induced nociceptive behaviors (flinches, licking); assay: Formalin Paw Test; type: in vivo; conditions: Rattus norvegicus, po, male rats, dose at which control values are inhibited by 50%
Protocol: Formalin Paw Test (Ref: Carlton S M and Zhou S: Attenuation of formalin-induced nociceptive behaviors following local peripheral injection of gabapeptin. Pain 76, 201-207, 1998). Male rats (Chbb: THOM) weighing 250-300 grams are used. 20 μl of a 2% formaldehyde solution is injected into the plantar region of the right hind paw. Immediately after, the number of flinches (twitches of the affected hind paw) and the length of time spent licking the affected paw are recorded over a period of one hour. After 5 minutes in each case the values are grouped together into epochs. From the epoch values, time-effect curves for flinches and licking are plotted. Typically, two phases of formalin effect are observed (flinches, licking). A first phase lasting 0-10 minutes and a second phase lasting 10-60 minutes. Between the two phases the number of flinches and duration of licking fall towards 0 (interphase). From the time-effect curves the areas under the curve for the first phase and for the second phase are determined. Usually, 5 animals are used for each control, placebo and dose of substance. The results of the doses of substance are compared with those of the controls and ED50 values are calculated. The ED50 is the dose at which the control values are inhibited by 50%.

[2] = system: Tetrodotoxin-sensitive currents; type: cell-based, rat; conditions: read-out: IC50 tetrodotoxin-sensitive currents; neurone cultures from the posterior root ganglions of adult rats
[3] = system: neuropathic pain (tactile allodynia, thermal hyperalgesia); assay: test models for neuropathic pain in the rat; type: in vivo; conditions: neuropathic pain models in the rat (Bennett and Xie; Seltzer et al.)
From the text: (1) Bennett G J and Xie Y-K. A peripheral mononeuropathy in rat that produces disorders of pain sensation like those seen in man. Pain 33, 87-107, […]. (2) Seltzer, Z., Dubner R. and Shir, Y. A novel behavioral model of neuropathic pain disorder. Pain 43, 205-218, 1990.

SMILES	ED50 [1] [mg/kg]	IC50 [2] [µM]	tactile allodynia [3]	thermal hyperalgesia [3]
Nc1c(Br)cc(Br)cc1CN[C@H]1CC[C@H](O)CC1 [ambroxol hydrochloride]	70			
Nc1c(Br)cc(Br)cc1CN[C@H]1CC[C@H](O)CC1 [ambroxol, trans-4-(2-amino-3,5-dibrombenzylamino)-cyclohexanol]		> 100	reduced the tactile allodynia	reduced
